Test results as given in the supplement of paper PMC10949913.

Key:
Details in all cases: 48 h
CU-ACC1 [1] = assay: AC50 viability; higher = less potent
Outline: (§1)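 Three adrenocortical carcinoma cell lines were seeded at 500–1,000 cells/well in 5 µL medium in 1,536-well plates. 23 nL of each MIPE 5.0 library compound was added at 11 concentrations. After 48 h (per the protocol name), CellTiter-Glo was added for 15 minutes at room temperature and luminescence was read. Signals were normalised per plate to vehicle and empty-well controls. AC50 and area under the curve came from fitted concentration-response curves, keeping only inhibitory or non-responding curve classes.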

CU-ACC2 [2] = assay: AC50 viability; higher = less potent
Outline: as §1

NCI-H295R [3] = assay: AC50 viability; higher = less potent
Outline: as §1

CU-ACC1 [4] = assay: area under concentration-response curve (viability) (AUC (a.u.)); higher = less active
Outline: as §1

CU-ACC2 [5] = assay: as above
Outline: as §1

NCI-H295R [6] = assay: as above
Outline: as §1

Row | SMILES | AC50 viability (CU-ACC1 [1]) [µM] | AC50 viability (CU-ACC2 [2]) [µM] | AC50 viability (NCI-H295R [3]) [µM] | area under concentration-response curve (CU-ACC1 [4]) | area under concentration-response curve (CU-ACC2 [5]) | area under concentration-response curve (NCI-H295R [6])
1 | COc1cc2c(Nc3ccc(Br)cc3F)ncnc2cc1OCC1CCN(C)CC1 | 14.8 | 16.6 | 16.6 | 401 | 418 | 403
2 | CC(C)c1cc(CNc2nc(Nc3cc(C4CC4)[nH]n3)cc(N3CCN(C)CC3)n2)on1 | 8.33 | 2.95 | 5.9 | 429 | 325 | 411
3 | CN(C)c1ccc(C(=O)NCCCCCCC(=O)NO)cc1 | 4.68 | 4.17 | 5.25 | 348 | 450 | 444
4 | COc1cc2c(Oc3ccc(NC(=O)C4(C(=O)Nc5ccc(F)cc5)CC4)cc3F)ccnc2cc1OCCCN1CCOCC1 | 10.5 | 9.34 | 6.61 | 469 | 549 | 436
5 | Nc1ncnc2c1c(-c1cnc3[nH]ccc3c1)nn2C1CCCC1 | 5.9 | 13.2 | 5.9 | 395 | 338 | 414
6 | COc1cc2c(Oc3ccc4[nH]c(C)cc4c3F)ncnc2cc1OCCCN1CCCC1 | 20.9 | 20.9 | 20.9 | 491 | 566 | 461
7 | C[C@@H](Oc1cc(-n2cnc3ccc(CN4CCN(C)CC4)cc32)sc1C(N)=O)c1ccccc1C(F)(F)F | 11.8 | 16.6 | 11.8 | 471 | 540 | 446
8 | N#Cc1c(C2CCNCC2)cc(-c2c(O)cccc2OCC2CC2)nc1N | 10.5 | 0.934 | 1.05 | 291 | 269 | 275
9 | COc1ccc(CNC(=O)Nc2ncc([N+](=O)[O-])s2)cc1 | 29.5 | 18.6 | 23.5 | 394 | 400 | 410
10 | CCc1cnn2c(NCc3ccc[n+]([O-])c3)cc(N3CCCC[C@H]3CCO)nc12 | 0.00263 | 0.0059 | 0.00417 | 177 | 167 | 158
11 | COC1=CC2=C(C=C1CC3=C(F)C(=CC=C3)Cl)C(=O)\C(=C/N2[C@H](CO)C(C)C)C(O)=O | 16.6 | 14.8 | 20.9 | 405 | 528 | 509
12 | C=CC(=O)Nc1cc2c(Nc3ccc(F)c(Cl)c3)ncnc2cc1OCCCN1CCOCC1 | 11.8 | 8.33 | 14.8 | 443 | 498 | 427
13 | CCCCCCCOc1ccc(CCC(N)(CO)CO)cc1C(F)(F)F | 14.8 | 16.6 | 9.34 | 446 | 553 | 466
14 | CCCCCCC(C)(C)C1=CC2=C([C@H]3CC(=C/CC3C(C)(C)O2)\CO)C(=C1)O (stereo not given in full) | 5.9 | 5.9 | 4.17 | 442 | 497 | 458
15 | COC(=O)[C@]12CCC(C)(C)C[C@H]1[C@H]3C(=O)\C=C\4[C@@](C)(CC[C@H]5C(C)(C)C(=O)\C(=C/[C@]45C)C#N)[C@]3(C)CC2 | 20.9 | 16.6 | 13.2 | 402 | 375 | 412
16 | CN[C@H]1CC[C@@H](c2ccc(Cl)c(Cl)c2)c2ccccc21 | 10.5 | 16.6 | 11.8 | 386 | 438 | 394
17 | COc1cccc2c1C(=O)c1c(O)c3c(c(O)c1C2=O)C[C@@](O)(C(C)=O)C[C@@H]3O[C@H]1C[C@H](N)[C@H](O)[C@H](C)O1 | 2.95 | 2.35 | 4.68 | 305 | 350 | 369
18 | CCc1ccc(OCc2ccccc2C(=O)Nc2ccc3nc(C)cc(N)c3c2)cc1 | 10.5 | 6.61 | 8.33 | 342 | 513 | 482
19 | C=CCNc1c(O)cc2c(O)c1C[C@@H](C)C[C@H](OC)[C@H](O)[C@@H](C)/C=C(/C)[C@H](OC(N)=O)[C@@H](OC)/C=C\C=C(\C)C(=O)N2 | 2.95 | 0.525 | 14.8 | 335 | 335 | 419
20 | Cc1nc(Nc2ncc(C(=O)Nc3c(C)cccc3Cl)s2)cc(N2CCN(CCO)CC2)n1 | 29.5 | 23.5 | 23.5 | 448 | 461 | 446
